Several values for one entry are separate records, joined by “and”; a condition that tells them apart may be missing. Identical values can stand only once.
Columns and labels:
[1] = system: Aonidiella aurantii; test: Field control of A. aurantii in citrus crops, percentage of damaged fruit; assay type: in vivo; conditions: 15.00 μg/diffuser/day
Protocol: With the final effective flow value (15 μg/diffuser/day), the assays for ascertaining the effective flow rate resulting from the combinations of the final effective flow of 15 μg/diffuser/day with an effective number of devices of 500 diffusers/ha, 380 diffusers/ha, 250 diffusers/ha, 100 diffusers/ha and 50 diffusers/ha continued in 2017, in addition to the result of chemical controls carried out using the products currently authorized to combat this pest. The effectiveness of the treatments was evaluated in accordance with the percentage of damaged fruit by means of sampling prior to picking the fruit. In order to determine said percentage, the number of shields of A. aurantii females per fruit was counted using the following protocol: 20 trees were selected per hectare and 10 fruits were taken from each tree: 8 from the exterior (from all the orientations and randomly) and 2 from the interior (randomly). A fruit with more than 10 shields was considered damaged. In the case of the treatment based on chemical control, a surface area equivalent to the other treatments was evaluated.

[2] = system: Aonidiella aurantii males; conditions: within natural semiochemical matrix; Vacas et al. 2017; cited from earlier work
[3] = system: Aonidiella aurantii males; test: Field trap test: effective flow attracting A. aurantii males within the interlinked semiochemical matrix; assay type: in vivo; conditions: for EFFECTIVE FLOW: orange
Protocol: Experiments for obtaining an effective flow to combat the diaspidid Aonidiella aurantii were carried out on citrus crops located in the province of Huelva in 2015 and 2016.
For these assays, four plots of different varieties of citrus trees with surface areas comprised between 2 and 10 hectares were initially taken.
An artificial semiochemical matrix 1 was generated therein by arranging 500 diffusers/ha, with a substantially constant initial emission flow-1 of 300 μg/diffuser/day (optimal flow according to the state of the art) of (3S,6RS)-3-methyl-6-isopropenyl-9-decen-1-yl acetate.
In the interior of these artificial semiochemical matrices, two blocks of seven diffusers with different emission flows were installed in each assay. These blocks were separated by a distance of more than 80 meters therebetween and the diffusers were separated 25 meters intra-block. Each block included: • (a) a glued trap, without any kind of semiochemical emission; • (b) a glued trap, with a diffuser with a substantially constant emission flow of 25 μg/day of (3S,6RS)-3-methyl-6-isopropenyl-9-decen-1-yl acetate. • (c) a glued trap, with a diffuser with a substantially constant emission flow of 50 μg/day of (3S,6RS)-3-methyl-6-isopropenyl-9-decen-1-yl acetate. • (d) a glued trap, with a diffuser with a substantially constant emission flow of 100 μg/day of (3S,6RS)-3-methyl-6-isopropenyl-9-decen-1-yl acetate. • (e) a glued trap with a diffuser with a substantially constant emission flow of 200 μg/day of (3S,6RS)-3-methyl-6-isopropenyl-9-decen-1-yl acetate. • (f) a glued trap with a diffuser with a substantially constant emission flow of 300 μg/day of (3S,6RS)-3-methyl-6-isopropenyl-9-decen-1-yl acetate (initial flow-1). • (g) a glued trap with a diffuser with a substantially constant emission flow of 400 μg/day of (3S,6RS)-3-methyl-6-isopropenyl-9-decen-1-yl acetate.
All the traps were placed in the trees at a height of 1.5 m. The traps used were of the 9.5×15 cm white sticky sheet type. Diffusers with a substantially constant emission flow were fixed to the center of the sticky sheet. Replacement of the sheets, intra-block rotation of the traps and reading of the male captures was performed on a weekly basis. Upon completing the first rotation of the traps, it was observed that those whose emission corresponded to the flow of […] had the highest number of captured males and not the traps with an initial flow-1 of 300 μg/diffuser/day (FIG. 1).
Subsequently, a new iteration for obtaining the effective flow-2 within the new interlinked matrix was initiated, to which end the previous diffusers were withdrawn and a new artificial semiochemical matrix-2 was generated through the installation of 500 diffusers/ha, with a substantially constant initial emission flow-2 equal to 25 μg/day (effective flow-1) of (3S,6RS)-3-methyl-6-isopropenyl-9-decen-1-yl acetate.
Two blocks of seven diffusers were installed in the interior of this new interlinked semiochemical matrix in each assay. These blocks were separated by a distance of more than 80 meters therebetween and the diffusers were separated 25 meters intra-block. […]

[4] = system: Aonidiella aurantii; test: Field control of A. aurantii in citrus crops, percentage of damaged fruit; assay type: in vivo; conditions: for EFFECTIVE CONTROL [% DAMAGE]: orange
[5] = system: Planococcus ficus; test: Field control of P. ficus in table grape crops, percentage of bunches with presence of pest, molasses or fumigines; assay type: in vivo; conditions: table grapes
Protocol: With the final definitive effective flow value (5-10 μg/diffuser/day), the assays for ascertaining the effective flow rate resulting from the combinations of the final effective flow with an effective number of devices of 1,000 diffusers/ha, 500 diffusers/ha, 250 diffusers/ha and 100 diffusers/ha continued in 2016 and 2017. Since the plots where the assays were carried out were used for organic or environmentally friendly farming, it was not possible to establish a chemical control for comparing the results of the effective control of Planococcus ficus. The effectiveness of the treatments was assessed in accordance with the percentage of bunches with presence of Planococcus ficus, molasses or fumigines by sampling prior to picking the grapes. In order to determine said percentage, 20 vines per hectare were taken randomly and 20 bunches were inspected in each, of which the 10 bunches closest to the center of the vine and the 10 bunches farthest from the vine were chosen, covering the entire vine. Both bunches in contact with primary branches were taken and isolated without touching any other branch. A total of […].

[6] = system: Planococcus ficus males; test: Field trap test: effective flow attracting P. ficus males within the interlinked semiochemical matrix; assay type: in vivo; conditions: for EFFECTIVE FLOW: table grapes
Protocol: The response of the males of the species P. ficus, at different emission flows of senecioate S-lavandulyl, was evaluated in various field tests carried out on table grape crops located in the Municipal District of […] de Murcia and Totana, both municipalities in the Region of Murcia in 2015, 2016 and 2017. For these assays, four plots of different varieties of table grapes with surface areas comprised between 1 and 4 hectares were initially taken. An artificial semiochemical matrix-1 was generated therein through the installation of 1,000 diffusers/ha, with a substantially constant emission flow of 300 μg/day of S-lavandulyl senecioate (initial flow-1). The choice of this initial emission flow is based on the average emission of commercial diffusers for controlling this pest. In the interior of these artificial semiochemical matrices, two blocks of six diffusers with different emission flows were installed in each assay. These blocks were separated by a distance of more than 80 meters therebetween and the diffusers were separated 25 meters intra-block. Each block included: • (a) a glued trap, without any kind of semiochemical emission. • (b) a glued trap, with a substantially constant emission flow of 10 μg/day of S-lavandulyl senecioate. • (c) a glued trap, with a diffuser with a substantially constant emission flow of 50 μg/day of S-lavandulyl senecioate. • (d) a glued trap, with a diffuser with a substantially constant emission flow of 100 μg/day of S-lavandulyl senecioate. • (e) a glued trap with a diffuser with a substantially constant emission flow of 200 μg/day of S-lavandulyl senecioate. • (f) a glued trap with a diffuser with a substantially constant emission flow of 300 μg/day of S-lavandulyl senecioate (initial flow-1). All the traps were placed in the trees at a height of 2 m. The traps used were of the 9.5×15 cm white sticky sheet type. Diffusers with a substantially constant emission flow were fixed to the center of the sticky sheet. Replacement of the sheets, intra-block rotation of the traps and reading of the male captures was performed on a weekly basis. Upon completing the first rotation of the traps it was observed that those whose emission corresponded to the emission flow of […] (effective flow-1) achieved the highest number of captures within the interlinked semiochemical matrix (FIG. 4). Next, a new iteration for obtaining the effective flow-2 within the new interlinked matrix was initiated, to which end the previous diffusers were withdrawn and a new artificial semiochemical matrix-2 was generated through the installation of 1,000 diffusers/ha, with a substantially constant emission flow of 10 μg/day (effective flow-1) of S-lavandulyl senecioate. Two blocks of six diffusers were installed in the interior of this new interlinked semiochemical matrix in each assay. These blocks were separated by a distance of more than 80 meters therebetween and the diffusers were separated 25 meters intra-block. Each block included: • (a) a glued trap, without any kind of semiochemical emission; • (b) a glued trap, with a diffuser with a substantially constant emission flow of 0.1 μg/day of S-lavandulyl senecioate. • (c) a glued trap, with a diffuser with a substantially constant emission flow of 5 μg/day of S-lavandulyl senecioate. • (d) a glued trap, with a diffuser with a substantially constant emission flow of 10 μg/day of S-lavandulyl senecioate. • (e) a glued trap with a diffuser with a substantially constant emission flow of 15 μg/day of S-lavandulyl senecioate. • (f) a glued trap with a diffuser with a substantially constant emission flow of 25 μg/day of S-lavandulyl senecioate. • (g) a glued trap with a diffuser with a substantially constant emission flow of 50 μg/day of S-lavandulyl senecioate. All the traps were placed in the trees at a height of 2 m. The traps used were of the 9.5×15 cm white sticky sheet type. The diffusers with a substantially constant emission flow were fixed to the center of the sticky sheet. […]

## C=CCCC(CC[C@H](C)CCOC(C)=O)C(=C)C (mixture of isomers) [(3S,6RS)-3-methyl-6-isopropenyl-9-decen-1-yl acetate]
[1]; 50 diff/Ha, 0.75 mg/Ha/day, 2017 Serra-Valencia, orange
  EFFECTIVE CONTROL [% DAMAGE]: 3.30% and 4.00%
[1]; 100 diff/Ha, 1.50 mg/Ha/day, 2017 Serra-Valencia, orange
  EFFECTIVE CONTROL [% DAMAGE]: 5.10% and 3.80%
[1]; 250 diff/Ha, 3.75 mg/Ha/day, 2017 Monserrat-Valencia, mandarine
  EFFECTIVE CONTROL [% DAMAGE]: 4.20%
[1]; 250 diff/Ha, 3.75 mg/Ha/day, 2017 Monserrat-Valencia, orange
  EFFECTIVE CONTROL [% DAMAGE]: 3.00%
[1]; 250 diff/Ha, 3.75 mg/Ha/day, 2017 Picasent-Valencia, mandarine
  EFFECTIVE CONTROL [% DAMAGE]: 1.90%
[2]
  optimal flow according to the state of the art: 300 μg/diffuser/day
[3]; 1st iteration, artificial semiochemical matrix 300.00 μg/diffuser/day, 500 diff/Ha, 2015 Rio Tinto-Huelva
  EFFECTIVE FLOW: 25.00 μg/diffuser/day
[3]; 2nd iteration, artificial semiochemical matrix 25.00 μg/diffuser/day, 500 diff/Ha, 2016 Nerva Huelva
  EFFECTIVE FLOW: 15.00 μg/diffuser/day
[3]; 3rd iteration, artificial semiochemical matrix 15.00 μg/diffuser/day, 380 diff/Ha, 2016 El Campillo-Huelva
  EFFECTIVE FLOW: 15.00 μg/diffuser/day
[3]; first rotation, matrix-1 of 500 diffusers/ha at 300 μg/diffuser/day, FIG. 1
  emission flow with the highest number of captured males (effective flow-1): 25 µg/diffuser/day
[3]; matrix-2 of 500 diffusers/ha at 25 μg/day, FIG. 2
  emission flow with higher number of captures (effective flow-2): 15 µg/day
[3]; third iteration, matrix of 500 diffusers/ha at 15 μg/day, FIG. 3
  final effective flow: 15 μg/diffuser/day
[4]; 5 μg/day at 500 emission points per hectare
  effective flow rate value determined within the interlinked semiochemical matrix after successive iterations: 2.5 mg per hectare and day
[4]; 15.00 μg/diffuser/day, 380 diff/Ha, 5.70 mg/Ha/day, 2016 El Campillo-Huelva
  EFFECTIVE CONTROL [% DAMAGE]: 1.70% and 0.70% and 0.60%
[4]; 300 μg/day at 500 emission points per hectare
  flow rate corresponding to the optimal flow according to the state of the art: 150 mg per hectare and day
[4]; matrix 25.00 μg/diffuser/day, 500 diff/Ha, 12.50 mg/Ha/day, 2016 Nerva Huelva
  EFFECTIVE CONTROL [% DAMAGE]: 7.30% and 7.50% and 8.00%

## C=C(C)[C@H](CC=C(C)C)COC(=O)C=C(C)C [S-lavandulyl senecioate]
[5]; 5 μg/diffuser/day, 100 diff/Ha, 0.50 mg/Ha/day, 2017 Totana-Murcia
  EFFECTIVE CONTROL [% DAMAGE]: 4.50%
[5]; 5 μg/diffuser/day, 250 diff/Ha, 1.25 mg/Ha/day, 2017 Totana-Murcia
  EFFECTIVE CONTROL [% DAMAGE]: 1.80%
[5]; 5.00 μg/diffuser/day, 500 diff/Ha, 2.50 mg/Ha/day, 2017 Alhama de Murcia
  EFFECTIVE CONTROL [% DAMAGE]: 0.80% and 1.40%
[5]; 5.00 μg/diffuser/day, 1,000 diff/Ha, 5.00 mg/Ha/day, 2017 Alhama de Murcia
  EFFECTIVE CONTROL [% DAMAGE]: 2.30% and 0.00%
[5]; 10 μg/diffuser/day, 100 diff/Ha, 1.00 mg/Ha/day, 2017 Totana-Murcia
  EFFECTIVE CONTROL [% DAMAGE]: 3.00%
[5]; 10 μg/diffuser/day, 250 diff/Ha, 2.50 mg/Ha/day, 2017 Totana-Murcia
  EFFECTIVE CONTROL [% DAMAGE]: 2.90%
[5]; 10.00 μg/diffuser/day, 500 diff/Ha, 5.00 mg/Ha/day, 2016 Alhama de Murcia
  EFFECTIVE CONTROL [% DAMAGE]: 0%
[5]; 10.00 μg/diffuser/day, 1,000 diff/Ha, 10.00 mg/Ha/day, 2016 Alhama de Murcia
  EFFECTIVE CONTROL [% DAMAGE]: 1.20% and 0.90% and 3.70%
[6]; 1st iteration, artificial semiochemical matrix 300.00 μg/diffuser/day, 1,000 diff/Ha, 2015 Alhama de Murcia
  EFFECTIVE FLOW: 10.00 μg/diffuser/day
[6]; 2nd iteration, artificial semiochemical matrix 10.00 μg/diffuser/day, 1,000 diff/Ha, 2016 Alhama de Murcia
  EFFECTIVE FLOW: 10.00 μg/diffuser/day
[6]; 3rd iteration, artificial semiochemical matrix 5.00 μg/diffuser/day, 1,000 diff/Ha, 2017 Alhama de Murcia
  EFFECTIVE FLOW: 5.00 μg/diffuser/day
[6]; 3rd iteration, artificial semiochemical matrix 10.00 μg/diffuser/day, 500 diff/Ha, 2016 Alhama de Murcia
  EFFECTIVE FLOW: 10.00 μg/diffuser/day
[6]; after second iteration
  final definitive effective flow value: 5-10 μg/diffuser/day
[6]; matrix-1 of 1,000 diffusers/ha at 300 μg/day, FIG. 4
  emission flow with the highest number of captures (effective flow-1): 10 µg/day
[6]; matrix-2 of 1,000 diffusers/ha at 10 μg/day, FIG. 5
  flows with the highest number of male captures: 5 µg/day and 10 µg/day

Reference: patent publication US20210059246A1, “METHOD FOR EFFECTIVELY CONTROLLING COCCOID INSECT PESTS” (Ecología y Protección Agrícola, S.L., priority 2017, published 2021)
